Results as given in article PMC10940605, “Design, synthesis and in vitro anticancer activity of some new lomefloxacin derivatives” (Scientific Reports, 2024).

Experiments:
786-0 = assay: NCI-60 SRB screen; type: cell-based; conditions: Homo sapiens; 786-0, 10^–5 Molar; read-out: Percent growth inhibition
Experimental: (§1) All newly synthesized compounds were selected and screened for anticancer activity against 60 human cancer cell lines representing 9 types of tumors including leukemia, melanoma, lung, colon, CNS, ovarian, renal, prostate, and breast cancers at the National Cancer Institute (NCI), Bethesda, USA. Screening was performed utilizing a single dose (10^−5 M concentration) and cells were incubated for 48 h. The end point was determined using sulforhodamine B (SRB) dye.
(§2) In this study, all the 16 newly synthesized compounds were submitted to the National Cancer Institute (USA) for anticancer evaluation and were selected and evaluated using 60 different human tumor cell lines representing lung, colon, CNS, ovarian, renal, prostate, breast cancers as well as leukemia and melanoma. A single dose (10^–5 Molar) was used for the initial screening for evaluation of anticancer activity. The 60 human cancer cell lines were provided by the national cancer institute biomedical research campus in Frederick, Maryland.
(§3) 60 different human cancer cell lines were utilized to screen the newly synthesized compounds for anticancer activity according to the previously reported standard procedure[24]–[26] as follows: • 96 well microtiter plates were used to inoculate the cells at […] ranging from 4000–5000 cells/well depending on the replication time of individual cell lines. Roswell Park Memorial Institute culture medium (RPMI 1640 medium) containing 2 mM L-glutamine and fetal bovine serum was used to grow the cells at 37 °C, 5% CO2, 95% air and 100% relative humidity for 24 h. • Fixation of cells in two plates of each cell line in situ was done using trichloroacetic acid (TCA). This represented the measurement of cell population at the time of drug addition (Tz). • Dimethyl sulfoxide (DMSO) was used to dissolve the synthesized compounds at 400-fold the desired final maximum concentration and frozen prior to use. This frozen concentrate was melted and diluted to twice the final concentration with complete medium containing 50 µg/mL gentamycin at time of drug addition. • The final compound concentration was obtained by adding 100 µL of the synthesized compounds to the appropriate microtiter wells already containing 100 µL followed by incubation of the plates at 37 °C, 5% CO2, 95% air and 100% relative humidity for 48 h. • Fixation of the cells was achieved by gentle addition of 50 µL of cold 50% (w/v) TCA followed by incubation for 60 min at 4 °C. The supernatant was then discarded and the plates are washed 5 times with tap water and air dried. • Sulphorhodamine B (SRB) solution (100 µL) at 0.4% (w/v) in 1% acetic acid was added to each plate followed by incubation for 10 min at room temperature. The unbound dye was then removed by washing five times with 1% acetic acid and plates were air dried. • Dissolution of the bound stain was done using […] trizma base and the absorbance was read at […] wavelength using an automated plate reader. • The percentage growth inhibition was calculated as follows: Ti-Tz/C-Tz×100forconcentrationswhichTi≥Tz Ti-Tz/Tz×100forconcentrationswhichTi<Tz • Time zero (Tz) • Control growth (C) • Test growth in the presence of drug (Ti)

CAKI-1 = assay: NCI-60 SRB screen; type: cell-based; conditions: Homo sapiens; CAKI-1, 10^–5 Molar; read-out: Percent growth inhibition
Experimental: as §1, §2, §3

LOX IMVI = assay: NCI-60 SRB screen; type: cell-based; conditions: Homo sapiens, 10^–5 Molar, read-out: Percent growth inhibition
Experimental: as §1, §2, §3

MDA-MB-231/ATCC = assay: NCI-60 SRB screen; type: cell-based; conditions: Homo sapiens, 10^–5 Molar, read-out: Percent growth inhibition
Experimental: as §1, §2, §3

MDA-MB-468 = assay: NCI-60 SRB screen; type: cell-based; conditions: Homo sapiens; MDA-MB-468, 10^–5 Molar; read-out: Percent growth inhibition
Experimental: as §1, §2, §3

NCI-H226 = assay: NCI-60 SRB screen; type: cell-based; conditions: Homo sapiens; NCI-H226, 10^–5 Molar; read-out: Percent growth inhibition
Experimental: as §1, §2, §3

NCI-H322M = assay: NCI-60 SRB screen; type: cell-based; conditions: Homo sapiens, 10^–5 Molar, read-out: Percent growth inhibition
Experimental: as §1, §2, §3

SF-268 = assay: NCI-60 SRB screen; type: cell-based; conditions: Homo sapiens; SF-268, 10^–5 Molar; read-out: Percent growth inhibition
Experimental: as §1, §2, §3

SNB-75 = assay: NCI-60 SRB screen; type: cell-based; conditions: Homo sapiens; SNB-75, 10^–5 Molar; read-out: Percent growth inhibition
Experimental: as §1, §2, §3

SW-620 = assay: NCI-60 SRB screen; type: cell-based; conditions: Homo sapiens; SW-620, 10^–5 Molar; read-out: Percent growth inhibition
Experimental: as §1, §2, §3

UACC-62 = assay: NCI-60 SRB screen; type: cell-based; conditions: Homo sapiens; UACC-62, 10^–5 Molar; read-out: Percent growth inhibition
Experimental: as §1, §2, §3

UO-31 = assay: NCI-60 SRB screen; type: cell-based; conditions: Homo sapiens; UO-31, 10^–5 Molar; read-out: Percent growth inhibition
Experimental: as §1, §2, §3

leukemia SR = assay: NCI-60 SRB screen; type: cell-based; conditions: Homo sapiens; SR, 10^–5 Molar; read-out: Percent growth inhibition
Experimental: as §1, §2, §3

[1] = system: 60 human cancer cell lines; assay: NCI-60 SRB screen, whole panel; type: cell-based; conditions: Homo sapiens, 48 h; One Dose Mean Graph, Conc 1.00E-5 Molar; read-out: Mean Growth Percent
A498 = assay: NCI-60 SRB screen; type: cell-based; conditions: Homo sapiens; A498, 10^–5 Molar; read-out: Percent growth inhibition
Experimental: as §1, §2, §3

ACHN = assay: NCI-60 SRB screen; type: cell-based; conditions: Homo sapiens, 10^–5 Molar, read-out: Percent growth inhibition
Experimental: as §1, §2, §3

BT-549 = assay: NCI-60 SRB screen; type: cell-based; conditions: Homo sapiens; BT-549, 10^–5 Molar; read-out: Percent growth inhibition
Experimental: as §1, §2, §3

HS 578T = assay: NCI-60 SRB screen; type: cell-based; conditions: Homo sapiens, 10^–5 Molar, read-out: Percent growth inhibition
Experimental: as §1, §2, §3

K-562 = assay: NCI-60 SRB screen; type: cell-based; conditions: Homo sapiens, K562; K-562, 10^–5 Molar; read-out: Percent growth inhibition
Experimental: as §1, §2, §3

M14 = assay: NCI-60 SRB screen; type: cell-based; conditions: Homo sapiens; M14, 10^–5 Molar; read-out: Percent growth inhibition
Experimental: as §1, §2, §3

MALME-3M = assay: NCI-60 SRB screen; type: cell-based; conditions: Homo sapiens, 10^–5 Molar, read-out: Percent growth inhibition
Experimental: as §1, §2, §3

MCF7 = assay: NCI-60 SRB screen; type: cell-based; conditions: Homo sapiens; MCF7, 10^–5 Molar; read-out: Percent growth inhibition
Experimental: as §1, §2, §3

MDA-MB-435 = assay: NCI-60 SRB screen; type: cell-based; conditions: Homo sapiens; MDA-MB-435, 10^–5 Molar; read-out: Percent growth inhibition
Experimental: as §1, §2, §3

NCI-H23 = assay: NCI-60 SRB screen; type: cell-based; conditions: Homo sapiens; NCI-H23, 10^–5 Molar; read-out: Percent growth inhibition
Experimental: as §1, §2, §3

NCI-H522 = assay: NCI-60 SRB screen; type: cell-based; conditions: Homo sapiens; NCI-H522, 10^–5 Molar; read-out: Percent growth inhibition
Experimental: as §1, §2, §3

OVCAR-4 = assay: NCI-60 SRB screen; type: cell-based; conditions: Homo sapiens; OVCAR-4, 10^–5 Molar; read-out: Percent growth inhibition
Experimental: as §1, §2, §3

OVCAR-5 = assay: NCI-60 SRB screen; type: cell-based; conditions: Homo sapiens; OVCAR-5, 10^–5 Molar; read-out: Percent growth inhibition
Experimental: as §1, §2, §3

OVCAR-8 = assay: NCI-60 SRB screen; type: cell-based; conditions: Homo sapiens; OVCAR-8, 10^–5 Molar; read-out: Percent growth inhibition
Experimental: as §1, §2, §3

PC-3 = assay: NCI-60 SRB screen; type: cell-based; conditions: Homo sapiens; PC-3, 10^–5 Molar; read-out: Percent growth inhibition
Experimental: as §1, §2, §3

SF-295 = assay: NCI-60 SRB screen; type: cell-based; conditions: Homo sapiens; SF-295, 10^–5 Molar; read-out: Percent growth inhibition
Experimental: as §1, §2, §3

SF-539 = assay: NCI-60 SRB screen; type: cell-based; conditions: Homo sapiens; SF-539, 10^–5 Molar; read-out: Percent growth inhibition
Experimental: as §1, §2, §3

SK-MEL-28 = assay: NCI-60 SRB screen; type: cell-based; conditions: Homo sapiens; SK-MEL-28, 10^–5 Molar; read-out: Percent growth inhibition
Experimental: as §1, §2, §3

U251 = assay: NCI-60 SRB screen; type: cell-based; conditions: Homo sapiens, U-251; U251, 10^–5 Molar; read-out: Percent growth inhibition
Experimental: as §1, §2, §3

Row | SMILES | inhibition at 10 µM (786-0) [%] | inhibition at 10 µM (CAKI-1) [%] | inhibition at 10 µM (LOX IMVI) [%] | inhibition at 10 µM (MDA-MB-231/ATCC) [%] | inhibition at 10 µM (MDA-MB-468) [%] | inhibition at 10 µM (NCI-H322M) [%] | inhibition at 10 µM (SF-268) [%] | inhibition at 10 µM (SNB-75) [%] | inhibition at 10 µM (UACC-62) [%] | inhibition at 10 µM (UO-31) [%] | activity at 10 µM [1] [%] | melting point [°C] | also measured
1 | CCn1cc(C(=O)O)c(=O)c2cc(F)c(N3CCN(C=O)C(C)C3)c(F)c21 (stereo not shown) [Compound 6, 1-Ethyl-6,8-difluoro-7-(4-formyl-3-methylpiperazin-1-yl)-4-oxo-1,4-dihydroquinoline-3-carboxylic acid] | 1.77 | 4.66 | 6.49 | 0.72 | 2.93 | 2.38 | 2.98 | 5.57 | 7.29 | 12.9 | 103 | 289 to 291 | inhibition at 10 µM (NCI-H226): 4.91%; inhibition at 10 µM (SW-620): 3.48%; inhibition at 10 µM (leukemia SR): 27.8%
2 | CCn1cc(C(=O)O)c(=O)c2cc(F)c(N3CCN(CC(=O)Nc4ccc(OC)cc4)C(C)C3)c(F)c21 (stereo not shown) [Compound 5c, 1-Ethyl-6,8-difluoro-7-(4-(2-((4-methoxyphenyl)amino)-2-oxoethyl)-3-methylpiperazin-1-yl)-4-oxo-1,4-dihydroquinoline-3-carboxylic acid] | 4.78 | 11.4 | 14 | 13.7 | 3.75 | 5.28 | 8.23 | 12.8 | 12.6 | 19.1 | 98.8 | 196 to 198 | inhibition at 10 µM (A498): 24.1%; inhibition at 10 µM (ACHN): 0.45%; inhibition at 10 µM (BT-549): 3.31%; inhibition at 10 µM (HS 578T): 8.53%; inhibition at 10 µM (K-562): 5.75%; inhibition at 10 µM (M14): 2.85%; inhibition at 10 µM (MALME-3M): 3.82%; inhibition at 10 µM (MCF7): 1.91%; inhibition at 10 µM (MDA-MB-435): 6.19%; inhibition at 10 µM (NCI-H23): 0.84%; inhibition at 10 µM (NCI-H522): 6.89%; inhibition at 10 µM (OVCAR-4): 8.21%; inhibition at 10 µM (OVCAR-5): 0.25%; inhibition at 10 µM (OVCAR-8): 3.62%; inhibition at 10 µM (PC-3): 4.07%; inhibition at 10 µM (SF-295): 2%; inhibition at 10 µM (SF-539): 3.21%; inhibition at 10 µM (SK-MEL-28): 5.79%; inhibition at 10 µM (U251): 0.32%
